From patent US20230002374A1, “GPR52 MODULATOR COMPOUNDS” (Heptares Therapeutics Limited, priority 2019, published 2023)

Biological target: human GPR52 (Homo sapiens, UniProt Q9Y2T5)
Test: GPR52 Agonist Functional cAMP Assay;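 further: HEKf cells transduced with GPR52 BacMam for 24 h, 2000 per well, exposed to compounds 30 min at 37° C with 0.5 mM IBMX, cAMP read by HTRF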
Settings: for Emax: maximal response normalised to DMSO (0%) and maximal compound 7m (J. Med. Chem., 2014, 57, 5226) response (100%); for EC50: pEC50 average, HEKf cells infected with human GPR52 BacMam virus, cAMP HTRF, 30 min at 37° C.

Sequence of human GPR52 (Q9Y2T5 whole entry): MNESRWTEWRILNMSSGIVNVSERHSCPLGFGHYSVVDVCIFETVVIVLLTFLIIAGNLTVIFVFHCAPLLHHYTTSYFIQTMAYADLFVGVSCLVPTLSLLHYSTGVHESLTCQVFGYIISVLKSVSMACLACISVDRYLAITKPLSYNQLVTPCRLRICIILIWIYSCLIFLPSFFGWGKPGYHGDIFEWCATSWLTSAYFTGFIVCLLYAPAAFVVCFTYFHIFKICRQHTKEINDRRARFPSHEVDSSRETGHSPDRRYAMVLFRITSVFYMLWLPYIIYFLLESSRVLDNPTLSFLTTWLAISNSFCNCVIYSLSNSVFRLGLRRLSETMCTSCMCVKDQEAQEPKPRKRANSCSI

Row | SMILES | Emax | EC50
1 | CC1Cc2c(cnn2-c2ccnc(Cc3cc(F)cc(C(F)(F)F)c3)c2)C(=O)N1 (stereo not drawn) [Example 40, 1-(2-(3-fluoro-5-(trifluoromethyl)benzyl)pyridin-4-yl)-6-methyl-1,5,6,7-tetrahydro-4H-pyrazolo[4,3-c]pyridin-4-one] | 93% | 100 nM
2 | O=C1NCCCc2c1nnn2-c1cc(Cc2cccc(C(F)(F)F)c2)ccn1 [Example 41, 1-(4-(3-(trifluoromethyl)benzyl)pyridin-2-yl)-5,6,7,8-tetrahydro-[1,2,3]triazolo[4,5-c]azepin-4(1H)-one] | 90% | 794 nM
3 | O=C1NCCc2c1nnn2-c1cc(Cc2cccc(C(F)(F)F)c2)ccn1 [Example 42, 1-(4-(3-(trifluoromethyl)benzyl)pyridin-2-yl)-1,5,6,7-tetrahydro-4H-[1,2,3]triazolo[4,5-c]pyridin-4-one] | 90% | 794 nM
4 | O=C1NCCc2nn(-c3cc(Cc4cccc(C(F)(F)F)c4)ccn3)nc21 [Example 43, 2-(4-(3-(trifluoromethyl)benzyl)pyridin-2-yl)-2,5,6,7-tetrahydro-4H-[1,2,3]triazolo[4,5-c]pyridin-4-one] | 86% | 251 nM
5 | CN1CCc2nn(-c3cc(Cc4cccc(C(F)(F)F)c4)ccn3)nc2C1=O [Example 44, 5-methyl-2-(4-(3-(trifluoromethyl)benzyl)pyridin-2-yl)-2,5,6,7-tetrahydro-4H-[1,2,3]triazolo[4,5-c]pyridin-4-one] | 74% | 2000 nM
6 | O=C1NCCCc2nn(-c3cc(Cc4cccc(C(F)(F)F)c4)ccn3)nc21 [Example 45, 2-(4-(3-(trifluoromethyl)benzyl)pyridin-2-yl)-5,6,7,8-tetrahydro-[1,2,3]triazolo[4,5-c]azepin-4(2H)-one] | 75% | 631 nM
7 | O=C1NCCCc2c1nnn2-c1cc(Cc2cc(F)cc(C(F)(F)F)c2)ccn1 [Example 46, 1-(4-(3-fluoro-5-(trifluoromethyl)benzyl)pyridin-2-yl)-5,6,7,8-tetrahydro-[1,2,3]triazolo[4,5-c]azepin-4(1H)-one] | 90% | 200 nM
8 | O=C1NOCc2c1cnn2-c1cc(Cc2cc(F)cc(C(F)(F)F)c2)ccn1 [Example 47, 1-(4-(3-fluoro-5-(trifluoromethyl)benzyl)pyridin-2-yl)-1,7-dihydropyrazolo[4,3-c/][1,2]oxazin-4(5H)-one] | 81% | 79.4 nM
9 | CC1CNC(=O)c2cnn(-c3ccnc(Cc4cc(F)cc(C(F)(F)F)c4)c3)c21 (stereo not drawn) [Example 50, 1-(2-(3-fluoro-5-(trifluoromethyl)benzyl)pyridin-4-yl)-7-methyl-1,5,6,7-tetrahydro-4H-pyrazolo[4,3-c]pyridin-4-one] | 95% | 39.8 nM
10 | O=C1NCCc2c1ccn2-c1ccnc(Cc2cc(F)cc(C(F)(F)F)c2)c1 [Example 51, 1-(2-(3-fluoro-5-(trifluoromethyl)benzyl)pyridin-4-yl)-1,5,6,7-tetrahydro-4H-pyrrolo[3,2-c]pyridin-4-one] | 95% | 126 nM
11 | O=C1NCCc2c1cnn2-c1ccnc(Oc2cc(F)cc(C(F)(F)F)c2)c1 [Example 52, 1-(2-(3-fluoro-5-(trifluoromethyl)phenoxy)pyridin-4-yl)-1,5,6,7-tetrahydro-4H-pyrazolo[4,3-c]pyridin-4-one] | 69% | 1580 nM
12 | O=C1NCCc2c1cnn2-c1ccnc(Cc2cc(F)cc(C3CC3)c2)c1 [Example 53, 1-(2-(3-cyclopropyl-5-fluorobenzyl)pyridin-4-yl)-1,5,6,7-tetrahydro-4H-pyrazolo[4,3-c]pyridin-4-one] | 100% | 6.31 nM
13 | O=C1NCCc2c1cnn2-c1ccnc(Cc2ccc(C(F)(F)F)c(F)c2)c1 [Example 54, 1-(2-(3-fluoro-4-(trifluoromethyl)benzyl)pyridin-4-yl)-1,5,6,7-tetrahydro-4H-pyrazolo[4,3-c]pyridin-4-one] | 63% | 398 nM
14 | COc1ccc(Cc2cc(-n3ncc4c3CCNC4=O)ccn2)cc1C(F)(F)F [Example 55, 1-(2-(4-methoxy-3-(trifluoromethyl)benzyl)pyridin-4-yl)-1,5,6,7-tetrahydro-4H-pyrazolo[4,3-c]pyridin-4-one] | 69% | 398 nM
15 | O=C1NCCc2c1cnn2-c1cc(Cc2cc(F)cc(C(F)(F)F)c2)ncn1 [Example 56, 1-(6-(3-fluoro-5-(trifluoromethyl)benzyl)pyrimidin-4-yl)-1,5,6,7-tetrahydro-4H-pyrazolo[4,3-c]pyridin-4-one] | 98% | 126 nM
16 | COc1cc(Cc2cc(-n3ncc4c3CCNC4=O)ccn2)cc(C(F)(F)F)c1 [Example 57, 1-(2-(3-methoxy-5-(trifluoromethyl)benzyl)pyridin-4-yl)-1,5,6,7-tetrahydro-4H-pyrazolo[4,3-c]pyridin-4-one] | 44% | 794 nM
17 | O=C1NCCc2c1cnn2-c1ccnc(Cc2cc(F)c(Cl)c(F)c2)c1 [Example 58, 1-(2-(4-chloro-3,5-difluorobenzyl)pyridin-4-yl)-1,5,6,7-tetrahydro-4H-pyrazolo[4,3-c]pyridin-4-one] | 79% | 100 nM

Row | SMILES | Emax | EC50
18 | O=C1NCCc2c1cnn2-c1ccnc(Cc2ccc3sccc3c2)c1 [Example 59, 1-(2-(benzo[b]thiophen-5-ylmethyl)pyridin-4-yl)-1,5,6,7-tetrahydro-4H-pyrazolo[4,3-c]pyridin-4-one] | 79% | 79.4 nM
19 | COc1cc(Cc2cc(-n3ncc4c3CCNC4=O)ccn2)ccc1C(F)(F)F [Example 60, 1-(2-(3-methoxy-4-(trifluoromethyl)benzyl)pyridin-4-yl)-1,5,6,7-tetrahydro-4H-pyrazolo[4,3-c]pyridin-4-one] | 83% | 398 nM
20 | O=C1NCCc2c1cnn2-c1ccnc(Cc2cc(F)cc(S(F)(F)(F)(F)F)c2)c1 [Example 61, 1-(2-(3-fluoro-5-(pentafluoro-λ^6-sulfaneyl)benzyl)pyridin-4-yl)-1,5,6,7-tetrahydro-4H-pyrazolo[4,3-c]pyridin-4-one] | 99% | 50.1 nM
21 | O=C1NCCc2c1cnn2-c1ccnc(Cc2cc(F)cc(OC(F)F)c2)c1 [Example 62, 1-(2-(3-(difluoromethoxy)-5-fluorobenzyl)pyridin-4-yl)-1,5,6,7-tetrahydro-4H-pyrazolo[4,3-c]pyridin-4-one] | 94% | 79.4 nM
22 | O=C1NCCc2c1cnn2-c1ccnc(Cc2ccc(OC(F)F)c(F)c2)c1 [Example 63, 1-(2-(4-(difluoromethoxy)-3-fluorobenzyl)pyridin-4-yl)-1,5,6,7-tetrahydro-4H-pyrazolo[4,3-c]pyridin-4-one] | 70% | 126 nM
23 | O=C1NCCc2c1cnn2-c1ccnc(Cc2cc(F)c(F)c(C(F)(F)F)c2)c1 [Example 64, 1-(2-(3,4-difluoro-5-(trifluoromethyl)benzyl)pyridin-4-yl)-1,5,6,7-tetrahydro-4H-pyrazolo[4,3-c]pyridin-4-one] | 94% | 20 nM
24 | O=C1NCCc2c1cnn2-c1ccnc(Cc2cc(F)c(F)c(Cl)c2)c1 [Example 66, 1-(2-(3-chloro-4,5-difluorobenzyl)pyridin-4-yl)-1,5,6,7-tetrahydro-4H-pyrazolo[4,3-c]pyridin-4-one] | 100% | 25.1 nM
25 | O=C1NCCc2c1cnn2-c1ccnc(Cc2cnc3ccccc3c2)c1 [Example 67, 1-(2-(quinolin-3-ylmethyl)pyridin-4-yl)-1,5,6,7-tetrahydro-4H-pyrazolo[4,3-c]pyridin-4-one] | 53% | 1580 nM
26 | O=C1NCCc2c1cnn2-c1ccnc(Cc2cc3ccccc3s2)c1 [Example 69, 1-(2-(benzo[b]thiophen-2-ylmethyl)pyridin-4-yl)-1,5,6,7-tetrahydro-4H-pyrazolo[4,3-c]pyridin-4-one] | 60% | 126 nM
27 | O=C1NCCc2c1cnn2-c1ccnc(Cc2cc(F)c(C(F)(F)F)c(F)c2)c1 [Example 70, 1-(2-(3,5-difluoro-4-(trifluoromethyl)benzyl)pyridin-4-yl)-1,5,6,7-tetrahydro-4H-pyrazolo[4,3-c]pyridin-4-one] | 74% | 316 nM
28 | CC(C)c1cc(F)cc(Cc2cc(-n3ncc4c3CCNC4=O)ccn2)c1 [Example 71, 1-(2-(3-fluoro-5-isopropylbenzyl)pyridin-4-yl)-1,5,6,7-tetrahydro-4H-pyrazolo[4,3-c]pyridin-4-one] | 91% | 20 nM
29 | COc1ncc(Cc2cc(-n3ncc4c3CCNC4=O)ccn2)cc1F [Example 72, 1-(2-((5-fluoro-6-methoxypyridin-3-yl)methyl)pyridin-4-yl)-1,5,6,7-tetrahydro-4H-pyrazolo[4,3-c]pyridin-4-one] | 83% | 1260 nM
30 | O=C1NCCc2c1cnn2-c1ccnc(Cc2cc(Cl)c(F)c(C(F)(F)F)c2)c1 [Example 73, 1-(2-(3-chloro-4-fluoro-5-(trifluoromethyl)benzyl)pyridin-4-yl)-1,5,6,7-tetrahydro-4H-pyrazolo[4,3-c]pyridin-4-one] | 88% | 50.1 nM
31 | O=C1NCCc2c1cnn2-c1ccnc(Cc2cc(F)cc(C3(C(F)(F)F)CC3)c2)c1 [Example 74, 1-(2-(3-fluoro-5-(1-(trifluoromethyl)cyclopropyl)benzyl)pyridin-4-yl)-1,5,6,7-tetrahydro-4H-pyrazolo[4,3-c]pyridin-4-one] | 53% | 501 nM
32 | Cc1cc(Cc2cc(-n3nc(C)c4c3CCNC4=O)ccn2)cnc1F [Example 76, 1-(2-((6-fluoro-5-methylpyridin-3-yl)methyl)pyridin-4-yl)-3-methyl-1,5,6,7-tetrahydro-4H-pyrazolo[4,3-c]pyridin-4-one] | 94% | 79.4 nM
33 | Cc1nn(-c2ccnc(Cc3cc(F)c(F)c(F)c3)c2)c2c1C(=O)NCC2 [Example 77, 3-methyl-1-(2-(3,4,5-trifluorobenzyl)pyridin-4-yl)-1,5,6,7-tetrahydro-4H-pyrazolo[4,3-c]pyridin-4-one] | 95% | 15.8 nM
